Source: patent publication US11220486B2 (La Jolla Institute of Allergy & Immunology, priority 2014, dated 2022)
Read-outs that look alike come from different tables or passages of the source.

Experiments:
3T3-L1 pre-adipocytes = assay: Insulin-based 3T3-L1 adipogenesis assay (AdipoRed); assay type: cell-based, mouse; settings: 10 μM
Procedure: The probe Compound D1 was also profiled in an insulin-based mouse 3T3-L1 adipogenesis assay. In this assay, 3T3-L1 pre-adipocytes are grown to 2-days post-confluence in DMEM with 10% bovine calf serum, and then induced to differentiate to adipocytes following stimulation for 2 days with an induction cocktail containing […] insulin, 1 μM dexamethasone, and 0.5 mM 3-isobutyl-1-methylxanthine in DMEM containing 10% fetal bovine serum (FBS).^44 2 days later, the media is replaced with DMEM with 10% FBS and 1 μg/ml insulin, and after 2 additional days, the media is replaced with DMEM with 10% FBS for 2 additional days, at which point adipogenesis is measured using the AdipoRed Adipogenesis Assay Reagent from Lonza, according to the manufacturer's instructions. In brief, the assay reagent is added to the wells containing cells, where it partitions into the fat droplets of differentiated adipocytes, and emits fluorescence at 572 nm that can be detected with a plate-reader. To test the effect of probe Compound D1, cells were plated into 48-well plates and allowed to grow to confluence. Cells were then treated with 10 μM Compound D1 or 0.025% DMSO, and after 2 days induced to differentiate in the presence of 10 μM Compound D1 or 0.025% DMSO. Fresh compound or DMSO was added during each media replacement.

[1] = Aqueous solubility in buffer pH 5.0-7.4 and PBS; assay type: physicochemical
[2] = Rodent pharmacokinetics (IV, PO, IP); assay type: in vivo, Male C57BL/6 Mice; settings: mouse
Procedure: The inventors also examined ML400 (also described herein as MLS-0472870 or Compound D1) for its rodent pharmacokinetics. The probe Compound D1 was profiled in Male C57BL/6 Mice, with n=3 for each group studied (IV, IP and PO arms). The formulation used was 1.00 mg/mL in DMSO:Tween80:Water=5:5:90, which gave a clear solution. […] Enterohepatic circulation was also observed for this compound. This compound has acceptable parameters for future in vivo studies (see Table 4 and FIG. 13).

[3] = tested on: obese mice (glucose tolerance); assay: IPGTT in high-fat-diet obese mice; assay type: in vivo, Male C57BL/6 mice; settings: 30 mg/kg daily IP, 4 weeks, HFD obese mice, 2 g glucose/kg
Procedure: Male C57BL/6 mice were maintained on HFD containing 60 kcal % fat for 3 months, followed by daily IP administration of 30 mg/kg Compound D1 or vehicle. After 4 weeks, IPGTT were performed using 2 g glucose/kg body weight. Mean±SEM is shown. *, p<0.05, Two-way ANOVA.

[4] = Kidney function: serum creatinine of treated mice; assay type: in vivo; settings: mice treated 30 mg/kg daily IP
Procedure: Serum creatinine levels from mice treated with Compound D1 (ML400) or vehicle (mice shown in FIG. 9) were assessed using the QuantiChrom Creatinine Assay Kit from BioAssay Systems.

[5] = Liver function: serum alanine transaminase or aspartate transaminase of treated mice; assay type: in vivo; settings: mice treated 30 mg/kg daily IP
Procedure: Serum alanine transaminase or aspartate transaminase levels from mice treated with Compound D1 (ML400) or vehicle (mice shown in FIG. 10) were assessed using EnzyChrom Assay Kits from BioAssay Systems.

[6] = target: LMPTP-A (Low Molecular Weight Protein Tyrosine Phosphatase-A) enzyme (Homo sapiens (Human), UniProt P24666); assay: LMPTP primary screening / LMPTP (OMFP) enzyme inhibition assay, fluorescence intensity; assay type: biochemical
Chain of LMPTP-A (Low Molecular Weight Protein Tyrosine Phosphatase-A) enzyme (P24666 whole entry): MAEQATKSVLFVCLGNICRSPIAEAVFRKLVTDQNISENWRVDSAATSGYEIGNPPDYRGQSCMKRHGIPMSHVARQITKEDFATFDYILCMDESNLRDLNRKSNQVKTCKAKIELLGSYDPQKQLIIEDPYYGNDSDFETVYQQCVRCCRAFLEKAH
Procedure: This assay attempts to identify inhibitors of the LMPTP-A (Low Molecular Weight Protein Tyrosine Phosphatase-A) enzyme. It is run in 1536-well format and is measured via fluorescence intensity.
A listing of materials is provided: • Item, source, catalog no. • LMPTP-A Enzyme Stock Solution (4.22 mg/ml or 206.8 μM), SBMRI Protein Facility, • N/A • OMFP, Sigma, M2629-100 MG • Bis-Tris pH 6.0, Fisher Sci, BP301-100 • Triton-X 100, Sigma, T9284 • DTT, Sigma, D9779 • Mol. Grade Water, Mediatech, Inc., 46-000-CM • 1536-well black High base opaque bottom plate, Nexus Biosystems, 00019120
Assay Procedure • 1. Prepare Reagents as described in section F. Recipe. • 2. Using LabCyte Echo, transfer 60 nL from 2 mM test compound source plate into assay plate Col. 5-48 (final concentration of test compounds is 20 μM). 60 nL of DMSO should be transferred to col. 1-4 for positive and negative control wells. • 3. Spin plates at 1000 rpm for 1 minute in centrifuge. • 4. […] Using the Bioraptr, add 3 μL/well of enzyme solution to col. 3-48. • 6. Using the Bioraptr, add 3 μL/well of substrate solution to col. 1-48. • 7. Spin plates at 1000 rpm for 1 minute in centrifuge. • 8. Incubate plates in the dark at room temperature for 50 minutes. • 9. Read plates on PerkinElmer Viewlux using a FI protocol.

[7] = Hepatic microsomal stability, mouse; assay type: in vitro ADME
From the text: The microsomal stability assay is commonly used to rank compounds according to their metabolic stability. This assay addresses the pharmacologic question of how long the parent compound will remain circulating in plasma within the body.

[8] = tested on: insulin receptor in human HepG2 hepatocytes; settings: HepG2 cells, 10 microM overnight, 1.76 microM insulin 5 min

## COc1ccc(-c2cc(NCCCN3CCCCC3)c3ccccc3n2)cc1 [Compound D1, 2-(4-methoxyphenyl)-N-(3-(piperidin-1-yl)propyl)quinolin-4-amine]
3T3-L1 pre-adipocytes
  3T3-L1 adipogenesis: completely abolished
[1]; PBS, compared with aqueous buffer
  solubility in PBS: comparable
[1]; pH range of 5.0-7.4
  concentration achieved in aqueous buffer relative to IC50: 18-20 ×IC50
[2]
  Enterohepatic circulation: observed
[3]
  glucose tolerance (IPGTT): Improves Glucose Tolerance
[4]
  kidney function (serum creatinine): does not Affect Kidney Function
[5]
  liver function (serum alanine transaminase or aspartate transaminase): does not Affect Liver Function

## CNC(=O)c1ccc(-c2cc(NCCCN3CCCCC3)c3ccccc3n2)cc1F [Compound I228]
[6]; read-out: IC50
  IC50: 801 to 5000 nM

## CN(C)Cc1cccc(Nc2cc(-c3ccc(Cl)cc3F)nc3ccccc23)c1 [Compound I9, [(3-{[2-(4-chloro-2-fluorophenyl)(4-quinolyl)]amino}phenyl)methyl]dimethylamine]
[6]; read-out: IC50
  IC50: 801 to 5000 nM

## c1ccc(-c2cc(NCCN3CCCCC3)c3ccccc3n2)cc1 [Entry 41]
[7]
  Hepatic Microsome Stability % Remaining @ 1 hr: 0.38%
[8]
  phosphorylation of the insulin receptor: increases phosphorylation of the insulin receptor

## CSCCCN1CCCCC1 [Entry 64]
[6]; S sample: compound synthesized de novo by SBCCG, read-out: LMPTP (OMFP) (IC50)
  IC50: 66900 nM

## CCN(CC)CCNC(=O)c1ccc(-c2cc(NCCCN3CCCCC3)c3ccccc3n2)cc1 [Compound I254]
[6]; read-out: IC50
  IC50: 200 to 800 nM
